What was measured:
Conditions in all cases: 72 h
HepG2 [1] = assay: cell viability relative to DMSO; higher = less toxic
U2OS [2] = assay: as above
Vero E6 [3] = assay: as above
Caco-2 [4] = assay: as above
Calu-3 [5] = assay: as above
HepG2 [6] = assay: drug sensitivity score (DSS) for viability; higher = more toxic; extreme values may be limits of the assay
U2OS [7] = assay: as above
Vero E6 [8] = assay: as above
Caco-2 [9] = assay: as above
Calu-3 [10] = assay: as above
HepG2 [11] = assay: relative viability EC50 (midpoint between 100% and the lowest measured viability); higher = less toxic
U2OS [12] = assay: as above
Vero E6 [13] = assay: as above
Caco-2 [14] = assay: as above
Calu-3 [15] = assay: as above

Structure (SMILES) | cell viability (HepG2 [1]; 1 nM) | cell viability (HepG2 [1]; 10 nM) | cell viability (HepG2 [1]; 100 nM) | cell viability (HepG2 [1]; 1000 nM) | cell viability (HepG2 [1]; 10000 nM) | cell viability (U2OS [2]; 1 nM) | cell viability (U2OS [2]; 10 nM) | cell viability (U2OS [2]; 100 nM) | cell viability (U2OS [2]; 1000 nM) | cell viability (U2OS [2]; 10000 nM) | cell viability (Vero E6 [3]; 1 nM) | cell viability (Vero E6 [3]; 10 nM) | cell viability (Vero E6 [3]; 100 nM) | cell viability (Vero E6 [3]; 1000 nM) | cell viability (Vero E6 [3]; 10000 nM) | cell viability (Caco-2 [4]; 1 nM) | cell viability (Caco-2 [4]; 10 nM) | cell viability (Caco-2 [4]; 100 nM) | cell viability (Caco-2 [4]; 1000 nM) | cell viability (Caco-2 [4]; 10000 nM) | cell viability (Calu-3 [5]; 1 nM) | cell viability (Calu-3 [5]; 10 nM) | cell viability (Calu-3 [5]; 100 nM) | cell viability (Calu-3 [5]; 1000 nM) | cell viability (Calu-3 [5]; 10000 nM) | drug sensitivity score (HepG2 [6]) | drug sensitivity score (U2OS [7]) | drug sensitivity score (Vero E6 [8]) | drug sensitivity score (Caco-2 [9]) | drug sensitivity score (Calu-3 [10]) | relative viability EC50 (HepG2 [11]) | relative viability EC50 (U2OS [12]) | relative viability EC50 (Vero E6 [13]) | relative viability EC50 (Caco-2 [14]) | relative viability EC50 (Calu-3 [15])
O=C(N[C@H]1CN2CCC1CC2)c1ccc2c(c1)OCCO2 | 101% | 93% | 108% | 97.7% | 94.6% | 98.8% | 94.8% | 97.8% | 95.3% | 97.2% | 100% | 89.3% | 97.2% | 91.3% | 107% | 93.6% | 95.2% | 87.5% | 101% | 99.1% | 93.6% | 98.3% | 102% | 102% | 99.3% | 0 | 0 | 0 | 0 | 0 | > 10 µM | > 10 µM | > 10 µM | > 10 µM | > 10 µM
O=C(Nc1ccccc1)N1CCN(c2nc(-c3ccccc3)ns2)CC1 | 100% | 118% | 101% | 106% | 76.9% | 104% | 99.5% | 97.8% | 99.6% | 98.9% | 93.3% | 96.3% | 94.1% | 93% | 83% | 100% | 97.8% | 101% | 95.4% | 86.7% | 116% | 102% | 106% | 96.8% | 102% | 0.6 | 0 | 0.3 | 0.4 | 0 | > 10 µM | > 10 µM | > 10 µM | > 10 µM | > 10 µM
O=C(O)CCc1c(C(=O)O)[nH]c2cc(Cl)cc(Cl)c12 | 102% | 92.5% | 94.2% | 107% | 105% | 96.2% | 103% | 95.9% | 99.7% | 97.5% | 99.9% | 102% | 102% | 94.3% | 102% | 92.8% | 104% | 90.9% | 102% | 99.4% | 91.6% | 96.3% | 93.2% | 97.5% | 106% | 0 | 0 | 0 | 0 | 0 | > 10 µM | > 10 µM | > 10 µM | > 10 µM | > 10 µM
O=C(O)Cn1c(C(=O)Nc2nc(-c3ccccc3Cl)cs2)cc2ccccc21 | 106% | 99.2% | 101% | 104% | 93.3% | 96% | 101% | 95.6% | 101% | 98.5% | 105% | 106% | 103% | 108% | 97.4% | 103% | 99.9% | 95.1% | 89.5% | 110% | 100% | 92.5% | 99.4% | 103% | 102% | 0 | 0 | 0 | 0 | 0 | > 10 µM | > 10 µM | > 10 µM | > 10 µM | > 10 µM
C#C[C@]1(OC(C)=O)CC[C@H]2[C@@H]3CCC4=CC(=NO)CC[C@@H]4[C@H]3CC[C@@]21CC (mixture of isomers) [norgestimate] | 108% | 97.6% | 107% | 91.3% | 111% | 97% | 104% | 94.3% | 99.6% | 96.2% | 99% | 94% | 99.2% | 99.6% | 102% | 98.3% | 87.7% | 73.4% | 93% | 92.4% | 98.6% | 104% | 102% | 106% | 104% | 0 | 0 | 0 | 0 | 0 | > 10 µM | > 10 µM | > 10 µM | > 10 µM | > 10 µM
CC[C@@H](C)c1ccc(NC(=O)Cn2cnc3c2c(=O)n(C)c(=O)n3C)cc1 (racemic) | 95.9% | 100% | 96.6% | 100% | 93.4% | 98.6% | 97.1% | 98.3% | 96.9% | 98.6% | 96% | 98.3% | 92.6% | 94% | 106% | 98.5% | 90.1% | 89.8% | 97.3% | 92.5% | 99.4% | 100% | 98.6% | 99% | 95.6% | 0 | 0 | 0 | 0 | 0 | > 10 µM | > 10 µM | > 10 µM | > 10 µM | > 10 µM
Cc1nc(C#Cc2ccnc(Cl)c2)c(C)n1-c1ccc(F)cc1 [basimglurant] | 104% | 99.5% | 102% | 95.3% | 77.4% | 91.4% | 96.1% | 101% | 91.9% | 93.2% | 106% | 101% | 96.9% | 102% | 91.3% | 101% | 95.2% | 101% | 90.5% | 66.5% | 88.4% | 90.6% | 92.2% | 92.4% | 95.8% | 1.4 | 0 | 0 | 3 | 0 | > 10 µM | > 10 µM | > 10 µM | – | > 10 µM
O[C@H]1[C@H](O)[C@@H](O)CN2CC[C@H](O)[C@H]12 [castanospermine] | 101% | 99.3% | 102% | 110% | 97.5% | – | – | – | – | – | 97.4% | 99.3% | 91% | 102% | 91.8% | 100% | 99% | 106% | 98.2% | 100% | 102% | 96.6% | 96.9% | 103% | 104% | 0 | – | 0 | 0 | 0 | > 10 µM | – | > 10 µM | > 10 µM | > 10 µM
CCOc1ccccc1-n1c(C(C)N2CCN(C(=O)COc3ccc(Cl)cc3)CC2)nc2ccccc2c1=O (configuration not stated) [erastin] | 96.6% | 102% | 109% | 89.8% | 5.5% | – | – | – | – | – | 96% | 99.4% | 95.8% | 97.2% | 15.5% | 103% | 94.8% | 96.9% | 97.1% | 43.4% | 113% | 97.4% | 109% | 81.3% | 13.5% | 6.9 | – | 5.1 | 3.5 | 7.8 | 2.27 µM | – | 2.92 µM | 2.76 µM | 1.67 µM
O=C(Nc1ccc([N+](=O)[O-])cc1Cl)c1cc(Cl)ccc1O [niclosamide] | 104% | 99.4% | 109% | 98% | 9.9% | 101% | 104% | 97.2% | 103% | 68.9% | 101% | 99.7% | 102% | 102% | 20% | 101% | 102% | 95.3% | 93.7% | 17.6% | 106% | 98.4% | 92.2% | 91.3% | 86.2% | 5.3 | 1.2 | 4.2 | 5.6 | 0.6 | 3.01 µM | – | 3.34 µM | 2.54 µM | > 10 µM
O=C1[C@H]2CCCC[C@H]2C(=O)N1CCCCN1CCN(c2nsc3ccccc23)CC1 [perospirone] | 97.4% | 88.9% | 89.1% | 89.1% | 86.1% | 96.2% | 99.7% | 104% | 92.9% | 92.8% | 104% | 98.7% | 102% | 101% | 107% | 86.7% | 87% | 91.8% | 92.9% | 65.9% | 94.1% | 101% | 99.3% | 98.7% | 89% | 2 | 0 | 0 | 3.4 | 0 | > 10 µM | > 10 µM | > 10 µM | – | > 10 µM
Cc1cc(CC(=O)O)n(C)c1C(=O)c1ccc(Cl)cc1 [zomepirac] | 88% | 84.9% | 84.7% | 101% | 91.6% | 96.6% | 101% | 92.9% | 97.7% | 99.6% | 105% | 94.6% | 104% | 94.4% | 93.7% | 94.4% | 97.7% | 75.3% | 74.4% | 77.8% | 94.7% | 99.6% | 97.4% | 94.3% | 103% | 0.1 | 0 | 0 | 7.3 | 0 | > 10 µM | > 10 µM | > 10 µM | – | > 10 µM

From the supplement of paper PMC13380429
